One compound from paper PMC5218480 (PLoS ONE, 2017) can be followed below.

The test system of this assay is MV-4-11 cells. The assay is described as follows: Gene expression microarray analysis (Affymetrix PrimeView) and GSEA. It is filed as cell-based, human. Further details: RFU PODN (11730768_x_at) / Fold change /veh PODN (11730768_x_at) / RFU LINC00158 (11744669_a_at) / Fold change /veh LINC00158 (11744669_a_at) / RFU DUSP10 (11751237_a_at) / Fold change /veh DUSP10 (11751237_a_at) / RFU ID3 (11757404_x_at) / Fold change /veh ID3 (11757404_x_at) / RFU PLEKHG5 (11737974_s_at) / Fold change /veh PLEKHG5 (11737974_s_at) / RFU LRRC4B (11730491_at) / Fold change /veh LRRC4B (11730491_at) / RFU GIMAP4 (11747438_a_at) / Fold change /veh GIMAP4 (11747438_a_at) / RFU KRT8 (11758183_x_at) / Fold change /veh KRT8 (11758183_x_at) / RFU CNN1 (11734310_a_at) / Fold change /veh CNN1 (11734310_a_at) / RFU VPS37D (11726825_at) / Fold change /veh VPS37D (11726825_at) / RFU C10orf10 (11716522_x_at) / Fold change /veh C10orf10 (11716522_x_at) / RFU KIR2DL2 /// KIR2DL4 /// KIR2DL5A /// KIR2DL5B /// KIR2DS1 /// KIR2DS2 /// KIR2DS3 /// KIR2DS4 /// KIR3DL3 /// KIR3DL3 /// KIR3DS1 (11738374_at) / Fold change /veh KIR2DL2 /// KIR2DL4 /// KIR2DL5A /// KIR2DL5B /// KIR2DS1 /// KIR2DS2 /// KIR2DS3 /// KIR2DS4 /// KIR3DL3 /// KIR3DL3 /// KIR3DS1 (11738374_at) / RFU C1QL1 (11718748_at) / Fold change /veh C1QL1 (11718748_at) / RFU TMPRSS4 (11747572_a_at) / Fold change /veh TMPRSS4 (11747572_a_at) / RFU HAMP (11756126_x_at) / Fold change /veh HAMP (11756126_x_at) / RFU RNFT2 (11725882_a_at) / Fold change /veh RNFT2 (11725882_a_at) / RFU NR4A2 (11747474_a_at) / Fold change /veh NR4A2 (11747474_a_at) / RFU ABCC12 (11746883_a_at) / Fold change /veh ABCC12 (11746883_a_at) / RFU TMEM136 (11760407_x_at) / Fold change /veh TMEM136 (11760407_x_at) / RFU CLDN22 /// WWC2 (11732394_at) / Fold change /veh CLDN22 /// WWC2 (11732394_at) / RFU HLA-DPB1 (11760878_x_at) / Fold change /veh HLA-DPB1 (11760878_x_at) / RFU SPINT1 (11716480_a_at) / Fold change /veh SPINT1 (11716480_a_at) / RFU GAP43 (11754022_s_at) / Fold change /veh GAP43 (11754022_s_at) / RFU A4GNT (11735810_at) / Fold change /veh A4GNT (11735810_at) / RFU PRB3 (11715151_x_at) / Fold change /veh PRB3 (11715151_x_at) / RFU TUBB4B (11761932_at) / Fold change /veh TUBB4B (11761932_at) / RFU CAPN14 (11732068_a_at) / Fold change /veh CAPN14 (11732068_a_at) / RFU TMCC2 (11721928_a_at) / Fold change /veh TMCC2 (11721928_a_at) / RFU IRGQ (11745062_a_at) / Fold change /veh IRGQ (11745062_a_at) / RFU FAM174B (11720279_a_at) / Fold change /veh FAM174B (11720279_a_at) / RFU TMPRSS4 (11748680_a_at) / Fold change /veh TMPRSS4 (11748680_a_at) / RFU FAM212B (11763350_a_at) / Fold change /veh FAM212B (11763350_a_at) / RFU PLEKHG5 (11743358_a_at) / Fold change /veh PLEKHG5 (11743358_a_at) / RFU ZSCAN30 (11745921_a_at) / Fold change /veh ZSCAN30 (11745921_a_at) / RFU CMKLR1 (11741424_a_at) / Fold change /veh CMKLR1 (11741424_a_at) / RFU LOC101060620 /// MAPK8IP1 (11723275_at) / Fold change /veh LOC101060620 /// MAPK8IP1 (11723275_at) / RFU SPTSSB (11747773_x_at) / Fold change /veh SPTSSB (11747773_x_at) / RFU PRSS12 (11739890_at) / Fold change /veh PRSS12 (11739890_at) / RFU BIN1 (11741810_x_at) / Fold change /veh BIN1 (11741810_x_at) / RFU WNT11 (11732464_a_at) / Fold change /veh WNT11 (11732464_a_at) / RFU C10orf10 (11716521_a_at) / Fold change /veh C10orf10 (11716521_a_at) / RFU C5orf56 (11738089_at) / Fold change /veh C5orf56 (11738089_at) / RFU CYB561 (11721691_x_at) / Fold change /veh CYB561 (11721691_x_at) / RFU ANKRD19P (11752326_a_at) / Fold change /veh ANKRD19P (11752326_a_at) / RFU OR2T12 /// OR2T33 /// OR2T8 (11738714_s_at) / Fold change /veh OR2T12 /// OR2T33 /// OR2T8 (11738714_s_at) / RFU VCAN (11748164_a_at) / Fold change /veh VCAN (11748164_a_at) / RFU JSRP1 (11732532_at) / Fold change /veh JSRP1 (11732532_at) / RFU KRTAP10-11 (11738290_x_at) / Fold change /veh KRTAP10-11 (11738290_x_at) / RFU MYO3A (11730013_a_at) / Fold change /veh MYO3A (11730013_a_at) / RFU EBF3 (11725865_a_at) / Fold change /veh EBF3 (11725865_a_at) / RFU CAMK2N1 (11719241_x_at) / Fold change /veh CAMK2N1 (11719241_x_at) / RFU C5orf56 (11738088_a_at) / Fold change /veh C5orf56 (11738088_a_at) / RFU OLFML3 (11715873_a_at) / Fold change /veh OLFML3 (11715873_a_at) / RFU LOC100653217 /// NTM (11731650_a_at) / Fold change /veh LOC100653217 /// NTM (11731650_a_at) / RFU MAPK11 (11762145_a_at) / Fold change /veh MAPK11 (11762145_a_at) / RFU FIZ1 (11724087_x_at) / Fold change /veh FIZ1 (11724087_x_at) / RFU OASL (11726364_x_at) / Fold change /veh OASL (11726364_x_at) / RFU SOX15 (11748057_x_at) / Fold change /veh SOX15 (11748057_x_at) / RFU CD79A (11719716_a_at) / Fold change /veh CD79A (11719716_a_at) / RFU HIST1H1D (11736915_at) / Fold change /veh HIST1H1D (11736915_at) / RFU CASKIN2 (11723855_a_at) / Fold change /veh CASKIN2 (11723855_a_at) / RFU LOC730098 (11760151_x_at) / Fold change /veh LOC730098 (11760151_x_at) / RFU OR4N2 (11742367_at) / Fold change /veh OR4N2 (11742367_at) / RFU PRRT2 (11749266_a_at) / Fold change /veh PRRT2 (11749266_a_at) / RFU SNX32 (11753110_a_at) / Fold change /veh SNX32 (11753110_a_at) / RFU CDHR5 (11726645_a_at) / Fold change /veh CDHR5 (11726645_a_at) / RFU RCAN1 (11760418_a_at) / Fold change /veh RCAN1 (11760418_a_at) / RFU FAM167A (11723789_a_at) / Fold change /veh FAM167A (11723789_a_at) / RFU FAM26E (11764081_at) / Fold change /veh FAM26E (11764081_at) / RFU ISYNA1 (11749810_s_at) / Fold change /veh ISYNA1 (11749810_s_at) / RFU ACY1 (11761880_at) / Fold change /veh ACY1 (11761880_at) / RFU 11764098_at / Fold change /veh 11764098_at / RFU SAMD14 (11745864_x_at) / Fold change /veh SAMD14 (11745864_x_at) / RFU NPB (11741838_a_at) / Fold change /veh NPB (11741838_a_at) / RFU TMPRSS6 (11731388_a_at) / Fold change /veh TMPRSS6 (11731388_a_at) / RFU KRTAP10-2 (11738614_at) / Fold change /veh KRTAP10-2 (11738614_at) / RFU ARHGAP8 /// PRR5-ARHGAP8 (11727945_x_at) / Fold change /veh ARHGAP8 /// PRR5-ARHGAP8 (11727945_x_at) / RFU KRTAP5-7 /// NADSYN1 (11734609_at) / Fold change /veh KRTAP5-7 /// NADSYN1 (11734609_at) / RFU RASL12 (11751679_a_at) / Fold change /veh RASL12 (11751679_a_at) / RFU CDKN2B (11736163_a_at) / Fold change /veh CDKN2B (11736163_a_at) / RFU PRF1 (11729649_at) / Fold change /veh PRF1 (11729649_at) / RFU, ZNF638 /// ZNF638-IT1 / Fold change vs veh, ZNF638 /// ZNF638-IT1 / RFU, PANK3 / Fold change vs veh, PANK3 / RFU, SH3YL1 / Fold change vs veh, SH3YL1 / RFU, ZEB2 / Fold change vs veh, ZEB2 / RFU, NRIP1 / Fold change vs veh, NRIP1 / RFU, PTTG1IP / Fold change vs veh, PTTG1IP / RFU, CAPN2 / Fold change vs veh, CAPN2 / RFU, MED14 / Fold change vs veh, MED14 / RFU, SNORA58 / Fold change vs veh, SNORA58 / RFU, C1orf63 / Fold change vs veh, C1orf63 / RFU, LRRFIP1 / Fold change vs veh, LRRFIP1 / RFU, NDUFAF7 / Fold change vs veh, NDUFAF7 / RFU, SLC12A2 / Fold change vs veh, SLC12A2 / RFU, IBTK / Fold change vs veh, IBTK / RFU, ESF1 / Fold change vs veh, ESF1 / Fold change vs veh, TMEM50B / RFU, TAOK1 / Fold change vs veh, TAOK1 / RFU, ACBD3 / Fold change vs veh, ACBD3 / RFU, TMA16 / Fold change vs veh, TMA16 / RFU, RWDD3 / Fold change vs veh, RWDD3 / RFU, BCAT1 / Fold change vs veh, BCAT1 / RFU, EDEM3 / Fold change vs veh, EDEM3 / RFU, TMEM33 / Fold change vs veh, TMEM33 / RFU, WDR75 / Fold change vs veh, WDR75 / RFU, AHCTF1 / Fold change vs veh, AHCTF1 / RFU, TFRC / Fold change vs veh, TFRC / RFU, ZDHHC17 / Fold change vs veh, ZDHHC17 / RFU, NOM1 / Fold change vs veh, NOM1 / RFU, ARL8B / Fold change vs veh, ARL8B / RFU, ZBTB11 / Fold change vs veh, ZBTB11 / RFU, TAMM41 / Fold change vs veh, TAMM41 / RFU, KIAA1704 /// LOC100996395 / Fold change vs veh, KIAA1704 /// LOC100996395 / RFU, ING1 / Fold change vs veh, ING1 / RFU, TRMT61B / Fold change vs veh, TRMT61B / RFU, FUBP3 / Fold change vs veh, FUBP3 / RFU, TP53 / Fold change vs veh, TP53 / RFU, TNKS2 / Fold change vs veh, TNKS2 / RFU, ZFP14 / Fold change vs veh, ZFP14 / RFU, ACTR2 / Fold change vs veh, ACTR2 / RFU, PPP3R1 / Fold change vs veh, PPP3R1 / RFU, PIK3R1 / Fold change vs veh, PIK3R1 / RFU, HNRNPA1 / Fold change vs veh, HNRNPA1 / RFU, RNF170 / Fold change vs veh, RNF170 / RFU, ZNF28 / Fold change vs veh, ZNF28 / RFU, RNGTT / Fold change vs veh, RNGTT / RFU, OGT / Fold change vs veh, OGT / RFU, BRD1 / Fold change vs veh, BRD1 / RFU, MARS / Fold change vs veh, MARS / RFU, ZNF655 / Fold change vs veh, ZNF655 / RFU, FAHD1 / Fold change vs veh, FAHD1 / RFU, BDP1 / Fold change vs veh, BDP1 / RFU, LRRCC1 / Fold change vs veh, LRRCC1 / RFU, ARID1A / Fold change vs veh, ARID1A / RFU, ZNF146 / Fold change vs veh, ZNF146 / RFU, ZNF330 / Fold change vs veh, ZNF330 / RFU, GPN3 / Fold change vs veh, GPN3 / RFU, C9orf123 / Fold change vs veh, C9orf123 / RFU, N4BP2L2 / Fold change vs veh, N4BP2L2 / RFU, ARFIP1 / Fold change vs veh, ARFIP1 / RFU, FAM179B / Fold change vs veh, FAM179B / RFU, BCL10 / Fold change vs veh, BCL10 / RFU, UHRF1BP1L / Fold change vs veh, UHRF1BP1L / RFU, BET1 / Fold change vs veh, BET1 / RFU, CNOT2 / Fold change vs veh, CNOT2 / RFU, ZNF268 / Fold change vs veh, ZNF268 / Fold change vs veh, ZNF507 / RFU, DGCR2 / Fold change vs veh, DGCR2 / RFU, WDSUB1 / Fold change vs veh, WDSUB1 / Fold change vs veh, HSP90B1 /// MIR3652 / RFU, ADSS / Fold change vs veh, ADSS / RFU, GK / Fold change vs veh, GK / RFU, ZNF148 / Fold change vs veh, ZNF148 / RFU, TAF9 / Fold change vs veh, TAF9 / RFU, SLC1A5 / Fold change vs veh, SLC1A5 / RFU, SLMO2 / Fold change vs veh, SLMO2 / RFU, ABCC4 / Fold change vs veh, ABCC4 / RFU, LOC101060439 /// RAP1B / Fold change vs veh, LOC101060439 /// RAP1B / RFU, RFX7 / Fold change vs veh, RFX7 / RFU, GTPBP10 / Fold change vs veh, GTPBP10 / RFU, CNEP1R1 / Fold change vs veh, CNEP1R1 / RFU, BIVM-ERCC5 /// ERCC5 / Fold change vs veh, BIVM-ERCC5 /// ERCC5 / RFU, ILF3 / Fold change vs veh, ILF3 / RFU 11762660_at / Fold change /veh 11762660_at / RFU VCAN (11757783_s_at) / Fold change /veh VCAN (11757783_s_at) / RFU DDX43 (11728927_at) / Fold change /veh DDX43 (11728927_at) / RFU KRT8 (11758188_x_at) / Fold change /veh KRT8 (11758188_x_at) / RFU NKD1 (11759106_at) / Fold change /veh NKD1 (11759106_at) / RFU SRD5A1 (11742802_a_at) / Fold change /veh SRD5A1 (11742802_a_at) / RFU TPSAB1 /// TPSB2 (11721975_s_at) / Fold change /veh TPSAB1 /// TPSB2 (11721975_s_at) / RFU GSTM3 (11746129_a_at) / Fold change /veh GSTM3 (11746129_a_at) / RFU IL23R (11737362_x_at) / Fold change /veh IL23R (11737362_x_at) / RFU TMEM51 (11727254_a_at) / Fold change /veh TMEM51 (11727254_a_at) / RFU PIWIL2 (11732686_x_at) / Fold change /veh PIWIL2 (11732686_x_at) / RFU ORM1 (11744905_x_at) / Fold change /veh ORM1 (11744905_x_at) / RFU CCDC152 (11743942_at) / Fold change /veh CCDC152 (11743942_at) / RFU ECM1 (11717891_a_at) / Fold change /veh ECM1 (11717891_a_at) / RFU IL23R (11748794_a_at) / Fold change /veh IL23R (11748794_a_at) / RFU TNFAIP8L3 (11732012_x_at) / Fold change /veh TNFAIP8L3 (11732012_x_at) / RFU MBOAT4 (11741988_at) / Fold change /veh MBOAT4 (11741988_at) / RFU 11764193_at / Fold change /veh 11764193_at / RFU TMEM53 (11763286_at) / Fold change /veh TMEM53 (11763286_at) / RFU MAGEB2 (11727129_at) / Fold change /veh MAGEB2 (11727129_at) / RFU TMEM200A (11744735_a_at) / Fold change /veh TMEM200A (11744735_a_at) / RFU CCDC152 (11751479_a_at) / Fold change /veh CCDC152 (11751479_a_at) / RFU FAM211A (11726209_a_at) / Fold change /veh FAM211A (11726209_a_at) / RFU RGS16 (11746705_a_at) / Fold change /veh RGS16 (11746705_a_at) / RFU VCAN (11755009_s_at) / Fold change /veh VCAN (11755009_s_at) / RFU RHOB (11743442_s_at) / Fold change /veh RHOB (11743442_s_at) / RFU RGS16 (11720943_a_at) / Fold change /veh RGS16 (11720943_a_at) / RFU RGS16 (11720944_at) / Fold change /veh RGS16 (11720944_at) / RFU, VPS4B / Fold change vs veh, VPS4B / RFU, CREB1 / Fold change vs veh, CREB1 / RFU, DNAJC13 / Fold change vs veh, DNAJC13 / RFU, GNAQ / Fold change vs veh, GNAQ / RFU, CDK5R1 / Fold change vs veh, CDK5R1 / RFU, ZRANB3 / Fold change vs veh, ZRANB3 / RFU, CUL4A / Fold change vs veh, CUL4A / RFU, CCNY / Fold change vs veh, CCNY / RFU, UFL1 / Fold change vs veh, UFL1 / RFU, COG3 / Fold change vs veh, COG3 / RFU, DIAPH2 / Fold change vs veh, DIAPH2 / RFU, SKA2 / Fold change vs veh, SKA2 / RFU, AFF3 / Fold change vs veh, AFF3 / RFU, LMF1 / Fold change vs veh, LMF1 / RFU, IPO11 / Fold change vs veh, IPO11 / RFU, DFFB / Fold change vs veh, DFFB / RFU, FOXP1 / Fold change vs veh, FOXP1 / RFU, CARD8 / Fold change vs veh, CARD8 / RFU, STRN3 / Fold change vs veh, STRN3 / RFU, ADK / Fold change vs veh, ADK / RFU, RASSF2 / Fold change vs veh, RASSF2 / RFU, WIPF1 / Fold change vs veh, WIPF1 / RFU, LARP1B / Fold change vs veh, LARP1B / RFU, RASA1 / Fold change vs veh, RASA1 / RFU, RB1 / Fold change vs veh, RB1 / RFU, PPFIA1 / Fold change vs veh, PPFIA1 / RFU, MAT2A / Fold change vs veh, MAT2A / RFU, CCT5 / Fold change vs veh, CCT5 / RFU, WDR92 / Fold change vs veh, WDR92 / RFU, CUX1 / Fold change vs veh, CUX1 / RFU, TTC7A / Fold change vs veh, TTC7A / RFU, TMEM135 / Fold change vs veh, TMEM135 / RFU, DEPTOR / Fold change vs veh, DEPTOR / RFU, CPM / Fold change vs veh, CPM / RFU, DNAJB6 / Fold change vs veh, DNAJB6 / RFU, CACNA2D3 / Fold change vs veh, CACNA2D3 / RFU, DTX4 / Fold change vs veh, DTX4 / RFU, TFCP2 / Fold change vs veh, TFCP2 / RFU, GMCL1 /// GMCL1P1 / Fold change vs veh, GMCL1 /// GMCL1P1 / RFU, AEBP2 / Fold change vs veh, AEBP2 / RFU, SNHG1 /// SNORD22 /// SNORD25 /// SNORD26 /// SNORD27 /// SNORD28 /// SNORD29 /// SNORD31 / Fold change vs veh, SNHG1 /// SNORD22 /// SNORD25 /// SNORD26 /// SNORD27 /// SNORD28 /// SNORD29 /// SNORD31 / Fold change (Aza/veh), C12orf56 (ProbeSet 11735607_a_at) / Fold change (ACY-1035/veh), C12orf56 (ProbeSet 11735607_a_at) / Fold change (Aza/veh), FGFR1OP (ProbeSet 11751329_s_at) / Fold change (ACY-1035/veh), FGFR1OP (ProbeSet 11751329_s_at) / Fold change (Aza/veh), VPS36 (ProbeSet 11739960_a_at) / Fold change (ACY-1035/veh), VPS36 (ProbeSet 11739960_a_at) / RFU SYPL1 (11715823_x_at) / Fold change /veh SYPL1 (11715823_x_at) / RFU IGFBP7 (11715501_s_at) / Fold change /veh IGFBP7 (11715501_s_at) / RFU REEP3 (11722064_at) / Fold change /veh REEP3 (11722064_at) / RFU IGLL1 (11728026_x_at) / Fold change /veh IGLL1 (11728026_x_at): dose or concentration left out as unconfirmed. The following applies: ProbeSet 11722463_a_at; LIST B.

Structures are written as SMILES.

In the case of `Nc1ncn([C@@H]2O[C@H](CO)[C@@H](O)[C@H]2O)c(=O)n1` [azacitidine], the “RFU, TNKS2” value is listed as 47.93 RFU.
